pIC50: −log10 of the molar value. A value given as a limit tells only on which side of the number the result lay.

For one experiment, the system named is NF-κB signaling pathway. Nature of the experiment: Cell-based dual luciferase NF-κB reporter assay (HEK293 cells, TNF stimulated). The conditions noted are these: Homo sapiens, HEK293. The essentials:
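HEK293 cells transfected with Firefly luciferase and NF-κB-response-element NanoLuc plasmids; compounds at 100–0.005 µM in 1% DMSO. Cells stimulated with 2.5 ng/mL TNF 30 min after compound addition. Firefly and NanoLuc activities read after 6 h by Nano-Glo dual-luciferase detection.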
(In general: A reporter such as luciferase makes a cellular process visible.)

Experiment [1] concerns the target T1, human E3 ubiquitin-protein ligase RNF31 (HOIP) (Homo sapiens, UniProt Q96EP0).
T1 sequence (Q96EP0 695-1072 limits assumed): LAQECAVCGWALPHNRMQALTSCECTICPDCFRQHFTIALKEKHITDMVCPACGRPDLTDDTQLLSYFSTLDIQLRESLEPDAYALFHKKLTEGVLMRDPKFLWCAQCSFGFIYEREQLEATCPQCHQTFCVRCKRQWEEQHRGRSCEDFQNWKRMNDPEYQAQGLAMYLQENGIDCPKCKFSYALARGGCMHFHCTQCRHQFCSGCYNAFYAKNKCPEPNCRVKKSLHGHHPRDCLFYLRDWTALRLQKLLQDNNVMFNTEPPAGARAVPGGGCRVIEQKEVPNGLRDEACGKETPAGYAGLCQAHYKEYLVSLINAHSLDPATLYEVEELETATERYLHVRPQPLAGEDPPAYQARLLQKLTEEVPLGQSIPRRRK
Kind of experiment: Cell-free HTRF-based HOIP inhibition assay. In kind it is biochemical. The method in brief:
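Recombinant human HOIP fragment (E. coli) preincubated with compounds (100-0.005 μM, 1% DMSO) and E1 for 1 h at 25° C. E2 and substrates then added; reaction 2.5 h at 25° C. HTRF read-out, excitation 337 nm, emissions 665/620 nm.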
A general note: TR-FRET usually uses a lanthanide donor and a delayed reading to cut background.

Experiment [2] concerns bladder carcinoma RT4 cell line. Kind of experiment: TNF-α-induced cytotoxicity assay (CellTiter-Glo viability). It is filed as cell-based. The conditions noted are these: Homo sapiens, RT-4, 72 h. The essentials:
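RT4 bladder carcinoma cells, 1000 per well, stimulated with 1.25 ng/mL TNFα together with compound for 72 h at 37° C., 5% CO2. Viability read by CellTiter-Glo luminescence, proportional to cellular ATP, as a measure of HOIP-dependent cytotoxicity.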

Broadly, the pIC50 is −log10 of the IC50, conventionally taken in molar units. Low values mean a high IC50, high ones a low IC50. Turning to `COc1ccc(S(=N)(=O)/C=C/CNC(=O)c2cc3c([nH]c2=O)CCCC3)c(C)c1` (stereo not drawn) [Example 139, N-[(2E)-3-[imino(4-methoxy-2-methylphenyl)oxo-λ^6-sulfanyl]prop-2-en-1-yl]-2-oxo-1,2,5,6,7,8-hexahydroquinoline-3-carboxamide], the pIC50 (in the experiment with NF-κB signaling pathway; in experiment [1]; in experiment [2]) was at least 6.00 throughout.
Take `N=S(=O)(/C=C/CNC(=O)c1cc2c([nH]c1=O)CCCC2)c1ccc(Oc2ccccc2)cc1` (stereo not drawn) [Example 140, N-[(2E)-3-[imino(oxo)(4-phenoxyphenyl)-λ^6-sulfanyl]prop-2-en-1-yl]-2-oxo-1,2,5,6,7,8-hexahydroquinoline-3-carboxamide]: the pIC50 (in the experiment with NF-κB signaling pathway; in experiment [1]; in experiment [2]) was at least 6.00 in each case.
Take `COc1ccc(S(=N)(=O)/C=C/CNC(=O)c2cc3c([nH]c2=O)CCC(C)C3)cc1F` (stereo not drawn) [Example 142, N-[(2E)-3-[(3-fluoro-4-methoxyphenyl)(imino)oxo-λ^6-sulfanyl]prop-2-en-1-yl]-6-methyl-2-oxo-1,2,5,6,7,8-hexahydroquinoline-3-carboxamide]: the pIC50 (with NF-κB signaling pathway; in experiment [1]; in experiment [2]) was at least 6.00 throughout.
Regarding `COc1ccc(S(=N)(=O)/C=C/CNC(=O)c2cc3ccccc3[nH]c2=O)cc1F` (stereo not drawn) [Example 143, N-[(2E)-3-[(3-fluoro-4-methoxyphenyl)(imino)oxo-λ^6-sulfanyl]prop-2-en-1-yl]-2-oxo-1,2-dihydroquinoline-3-carboxamide], the negative logarithm of the IC50 (pIC50) in the experiment with NF-κB signaling pathway is at least 6.00; in experiment [1], at least 7.00; in experiment [2], at least 6.00.
On to `COc1ccc(S(=N)(=O)/C=C/CNC(=O)c2cc3c([nH]c2=O)CCOC3)cc1F` (stereo not drawn) [Example 145, N-[(2E)-3-[(3-fluoro-4-methoxyphenyl)(imino)oxo-λ^6-sulfanyl]prop-2-en-1-yl]-2-oxo-1H,2H,5H,7H,8H-pyrano[4,3-b]pyridine-3-carboxamide], for which the pIC50 in the experiment on NF-κB signaling pathway is at least 4.00; in experiment [1] it was at least 6.00; in experiment [2], at least 5.00.
In the same order, the values of `N=S(=O)(/C=C/CNC(=O)c1cc2c([nH]c1=O)CCCC2)c1cccc(Oc2ccccc2)c1` (stereo not drawn) [Example 146, N-[(2E)-3-[imino(oxo)(3-phenoxyphenyl)-λ^6-sulfanyl]prop-2-en-1-yl]-2-oxo-1,2,5,6,7,8-hexahydroquinoline-3-carboxamide] are at least 6.00, at least 7.00 and at least 6.00.
For `COc1ccc(S(=N)(=O)/C=C/CNC(=O)c2cc3c([nH]c2=O)CCC(C(F)(F)F)C3)cc1F` (stereo not drawn) [Example 147, N-[(2E)-3-[(3-fluoro-4-methoxyphenyl)(imino)oxo-λ^6-sulfanyl]prop-2-en-1-yl]-2-oxo-6-(trifluoromethyl)-1,2,5,6,7,8-hexahydroquinoline-3-carboxamide], in that order: at least 5.00, at least 6.00 and at least 5.00.
On to `COc1ccc(S(=N)(=O)/C=C/CNC(=O)c2cc3c([nH]c2=O)CCC(C(C)(C)C)C3)cc1F` (stereo not drawn) [Example 148, 6-tert-butyl-N-[(2E)-3-[(3-fluoro-4-methoxyphenyl)(imino)oxo-A*-sulfanyl]prop-2-en-1-yl]-2-oxo-1,2,5,6,7,8-hexahydroquinoline-3-carboxamide], for which the pIC50 (with NF-κB signaling pathway; in experiment [1]; in experiment [2]) was at least 6.00 each time.
Regarding `COc1ccc(S(=N)(=O)/C=C/CNC(=O)c2cc(-c3ccccc3)c[nH]c2=O)cc1F` (stereo not drawn) [Example 149, N-[(2E)-3-[(3-fluoro-4-methoxyphenyl)(imino)oxo-λ^6-sulfanyl]prop-2-en-1-yl]-2-oxo-5-phenyl-1,2-dihydropyridine-3-carboxamide], the pIC50 with NF-κB signaling pathway is at least 5.00; in experiment [1], at least 6.00; in experiment [2], at least 5.00.
`COc1ccc(S(=N)(=O)/C=C/CNC(=O)c2cc3c([nH]c2=O)CCCCC3)cc1F` (stereo not drawn) [Example 150, N-[(2E)-3-[(3-fluoro-4-methoxyphenyl)(imino)oxo-λ^6-sulfanyl]prop-2-en-1-yl]-2-oxo-1H,2H,5H,6H,7H,8H,9H-cyclohepta[b]pyridine-3-carboxamide]: the values for the pIC50 (in the experiment on NF-κB signaling pathway; in experiment [1]; in experiment [2]) were at least 5.00, at least 6.00 and at least 6.00, respectively.
As to `COc1ccc(S(=N)(=O)/C=C/CNC(=O)c2cc3c([nH]c2=O)CCC3)cc1F` (stereo not drawn) [Example 151, N-[(2E)-3-[(3-fluoro-4-methoxyphenyl)(imino)oxo-λ^6-sulfanyl]prop-2-en-1-yl]-2-oxo-1H,2H,5H,6H,7H-cyclopenta[b]pyridine-3-carboxamide], the pIC50 is at least 5.00 in the experiment on NF-κB signaling pathway, at least 6.00 in experiment [1] and at least 6.00 in experiment [2].
Turning to `COc1ccc(S(=N)(=O)/C=C/CNC(=O)c2cc3c([nH]c2=O)CCN(C(=O)OC(C)(C)C)C3)cc1F` (stereo not drawn) [Example 152, tert-butyl 3-{[(2E)-3-[(3-fluoro-4-methoxyphenyl)(imino)oxo-λ^6-sulfanyl]prop-2-en-1-yl]carbamoyl}-2-oxo-1,2,5,6,7,8-hexahydro-1,6-naphthyridine-6-carboxylate], the pIC50 with NF-κB signaling pathway was at least 5.00; in experiment [1], at least 7.00; in experiment [2] it was at least 5.00.
Turning to `COc1ccc(S(=N)(=O)/C=C/CNC(=O)c2cc3c([nH]c2=O)CCN(Cc2ccccc2)C3)cc1F` (stereo not drawn) [Example 153, 6-benzyl-N-[(2E)-3-[(3-fluoro-4-methoxyphenyl)(imino)oxo-A*-sulfanyl]prop-2-en-1-yl]-2-oxo-1,2,5,6,7,8-hexahydro-1,6-naphthyridine-3-carboxamide], the pIC50 (in the experiment with NF-κB signaling pathway; in experiment [1]; in experiment [2]) was at least 6.00 in each case.
Regarding `COc1ccc(S(=N)(=O)/C=C/CNC(=O)c2cc3c([nH]c2=O)CCC(OC)C3)cc1F` (stereo not drawn) [Example 169, N-[(2E)-3-[(3-fluoro-4-methoxyphenyl)(imino)oxo-λ^6-sulfanyl]prop-2-en-1-yl]-6-methoxy-2-oxo-1,2,5,6,7,8-hexahydroquinoline-3-carboxamide], the pIC50 is at least 5.00 in the experiment with NF-κB signaling pathway, at least 6.00 in experiment [1] and at least 5.00 in experiment [2].
As for `COc1ccc(S(=N)(=O)/C=C/CNC(=O)c2cc3c([nH]c2=O)CCN(CC(F)(F)F)C3)cc1F` (stereo not drawn) [Example 170, N-[(2E)-3-[(3-fluoro-4-methoxyphenyl)(imino)oxo-λ^6-sulfanyl]prop-2-en-1-yl]-2-oxo-6-(2,2,2-trifluoroethyl)-1,2,5,6,7,8-hexahydro-1,6-naphthyridine-3-carboxamide], the values for the pIC50 (in the experiment with NF-κB signaling pathway; in experiment [1]; in experiment [2]) were at least 5.00, at least 6.00 and at least 5.00, respectively.
Consider `COc1ccc(S(=N)(=O)/C=C/CNC(=O)c2cc3c([nH]c2=O)CCN(C(=O)OCC(F)F)C3)cc1F` (stereo not drawn) [Example 178, 2,2-difluoroethyl 3-{[(2E)-3-[(3-fluoro-4-methoxyphenyl)(imino)oxo-λ^6-sulfanyl]prop-2-en-1-yl]carbamoyl}-2-oxo-1,2,5,6,7,8-hexahydro-1,6-naphthyridine-6-carboxylate], for which the pIC50 was at least 5.00 in the experiment on NF-κB signaling pathway, at least 7.00 in experiment [1] and at least 5.00 in experiment [2].
Take `N=S(=O)(/C=C/CNC(=O)c1cc2c([nH]c1=O)CCN(C(=O)OCC1CC1)C2)c1ccccc1` (stereo not drawn) [Example 179, cyclopropylmethyl 3-{[(2E)-3-[imino(oxo)phenyl-λ^6-sulfanyl]prop-2-en-1-yl]carbamoyl}-2-oxo-1,2,5,6,7,8-hexahydro-1,6-naphthyridine-6-carboxylate]: the pIC50 is at least 5.00 with NF-κB signaling pathway, at least 6.00 in experiment [1] and at least 5.00 in experiment [2].

Source of the values: US20260250250A1, “3-(SULPHONYL OR SULFONIMIDOYL)PROP-2-EN-1-YL]-2-OXO-1,2-DIHYDROPYRIDINE-3-CARBOXAMIDE DERIVATIVES” (Flinder Therapeutics B.V., priority 2022, published 2026).
